In one experiment the target is T1, human M1 mAChR (Homo sapiens, UniProt P11229).
T1 construct: expressed in transfected cells
T1 sequence (P11229 1-460): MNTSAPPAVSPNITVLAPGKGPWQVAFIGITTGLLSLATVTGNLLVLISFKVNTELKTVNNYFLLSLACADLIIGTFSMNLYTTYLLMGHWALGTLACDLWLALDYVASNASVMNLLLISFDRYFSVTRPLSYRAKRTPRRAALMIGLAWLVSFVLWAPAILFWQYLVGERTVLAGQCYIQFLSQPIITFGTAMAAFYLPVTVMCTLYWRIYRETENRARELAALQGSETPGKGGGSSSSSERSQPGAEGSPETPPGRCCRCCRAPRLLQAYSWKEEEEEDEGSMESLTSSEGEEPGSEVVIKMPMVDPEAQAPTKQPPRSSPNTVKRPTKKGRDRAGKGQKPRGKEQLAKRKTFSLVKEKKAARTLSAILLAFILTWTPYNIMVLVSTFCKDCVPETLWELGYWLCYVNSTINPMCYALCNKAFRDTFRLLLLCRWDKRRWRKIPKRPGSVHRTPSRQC
The experiment in a line: Whole-cell functional agonist activity, FLIPR Ca2+ release, U2OS-based human M1 mAChR stable cell line. The settings on record: for EC50: agonist, FLIPR Ca2+ release, U2OS human M1 cells; for Emax: top of curve, % activity vs MAX control ligand, FLIPR Ca2+. From the text:
(§1) Whole-cell functional agonist activity in cells expressing recombinant human muscarinic receptor subtypes.
(§2) ThermoFisher's FLIPR™ (Fluorescence Imaging Plate Reader) was used to quantify Ca^2+ release, a functional effect associated with Gaq-coupled M1 and M5 mAChRs. CisBio's phospho-ERK (pERK) Thr202/Tyr204 was used to evaluate Gai/o-coupled M2 and M4 mAChRs responses.
(§3) One day before the assay, M1, M3, and M5 cells were thawed out and plated at 10,000 cells/well into black-walled, clear-bottom, Poly-D-lysine coated 384-well microplates and incubated at 37° C. and 5% CO2 in MEME+10% FBS+1× penicillin/streptomycin/glutamine, for the M1 and M3 cell lines and F-12+10% FBS+1× penicillin/streptomycin/glutamine for the M5 cell line. […] The M1 and M5 responses were analyzed using the CBIS data analysis suite (ChemInnovation, CA).
(§4) Percentage activity was calculated using the following formula: % Activity=100%×(mean RFU of test sample mean RFU of vehicle control)/(mean MAX RFU control ligand mean RFU of vehicle control) where RFU is relative fluorescence unit. The M2 and the M4 cells were thawed out one day before the assay and plated at 2,000 and 1,000 cells per well, respectively, in […] of DMEM/F12+10% FBS in ProxiPlate 384-well white-walled, white-bottom tissue culture-treated plates and incubated at 37° C. and 5% CO2 overnight. Before the assay, cells were serum-starved at 37° C. in 5% CO2 for 4 hours by replacing culture media with […] of F12 media with 8 mM HEPES. The pERK assay was run according to assay kit instructions with minor volume modifications outlined below.

A further experiment deals with T2, human M5 mAChR (Homo sapiens, UniProt P08912).
T2 construct: expressed in transfected cells
T2 sequence (P08912 1-532): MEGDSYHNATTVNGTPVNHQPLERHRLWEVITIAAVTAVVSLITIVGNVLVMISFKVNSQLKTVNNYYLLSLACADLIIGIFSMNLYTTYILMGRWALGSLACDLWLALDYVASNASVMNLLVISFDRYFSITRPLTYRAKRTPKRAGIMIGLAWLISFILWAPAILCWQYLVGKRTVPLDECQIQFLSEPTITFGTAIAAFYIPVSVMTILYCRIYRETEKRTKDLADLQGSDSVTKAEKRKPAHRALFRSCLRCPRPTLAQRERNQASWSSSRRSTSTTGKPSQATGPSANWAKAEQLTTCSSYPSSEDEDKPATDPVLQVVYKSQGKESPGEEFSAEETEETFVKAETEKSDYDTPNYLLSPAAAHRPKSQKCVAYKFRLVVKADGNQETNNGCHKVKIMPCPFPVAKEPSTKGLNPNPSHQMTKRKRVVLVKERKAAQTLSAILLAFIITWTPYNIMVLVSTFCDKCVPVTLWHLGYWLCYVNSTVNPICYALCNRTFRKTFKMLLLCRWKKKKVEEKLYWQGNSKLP
Briefly: Whole-cell functional agonist activity, FLIPR Ca2+ release, CHOK1-based human M5 mAChR stable cell line. The settings on record: for EC50: agonist, FLIPR Ca2+ release, CHOK1 human M5 cells; for Emax: top of curve, % activity vs MAX control ligand, FLIPR Ca2+.
From the text: as §1, §2, §3, §4

The next experiment deals with T3, human M2 mAChR (Homo sapiens, UniProt P08172).
T3 construct: expressed in transfected cells
T3 sequence (P08172 1-466): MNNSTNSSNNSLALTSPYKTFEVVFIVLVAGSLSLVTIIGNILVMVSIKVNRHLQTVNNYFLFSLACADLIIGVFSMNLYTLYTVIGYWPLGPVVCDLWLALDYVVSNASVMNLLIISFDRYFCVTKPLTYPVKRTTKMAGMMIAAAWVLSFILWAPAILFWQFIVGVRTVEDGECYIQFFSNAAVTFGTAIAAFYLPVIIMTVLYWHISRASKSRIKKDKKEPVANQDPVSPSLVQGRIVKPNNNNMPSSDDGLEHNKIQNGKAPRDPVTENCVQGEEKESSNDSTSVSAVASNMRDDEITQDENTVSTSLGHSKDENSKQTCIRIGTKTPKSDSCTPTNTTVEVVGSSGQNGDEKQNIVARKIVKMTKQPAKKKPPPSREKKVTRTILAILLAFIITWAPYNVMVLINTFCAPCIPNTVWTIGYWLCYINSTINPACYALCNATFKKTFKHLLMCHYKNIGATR
The experiment in a line: Whole-cell functional agonist activity, phospho-ERK (pERK), CHOK1-based human M2 mAChR stable cell line. To be noted: for EC50: agonist, CHOK1 human M2 cells; for M2 Top (%): top of curve, % of min (DMSO) and max (10 mM Acetylcholine) responses. As to the method: as §1, §2, §4
Compound addition was carried out by adding 3× compound solution in […] of media with 0.3% DMSO (made from a 10 mM compound stock solution in 100% DMSO) for 5 minutes before the reaction was terminated by adding […] lysis and blocking solution. Cells were left in the lysis solution for 30 minutes before […] of antibody (Eu and d2) solution was added for an additional 2-hour incubation while protected from light. The plates were then read on laser Pherastar using the TR-FRET protocol.

On to `CCCCC(F)(F)COc1nsnc1C1=CCCN(C)C1` [Example 11, 3-((2,2-Difluorohexyl)oxy)-4-(1-methyl-1,2,5,6-tetrahydropyridin-3-yl)-1,2,5-thiadiazole], for which, on human M1 mAChR, the EC50 (commonly the midpoint of the concentration-response curve) is 29 nM and the Emax (commonly the maximal effect, on the per cent scale that the assay sets) turned out to be 32%. At human M5 mAChR, this compound registered an EC50 of 2290 nM and a maximal effect (Emax) of 45%. Also, at human M2 mAChR, the EC50 is above 34 nM and the “M2 Top (%)” value was determined as 0%.

At human M1 mAChR, `CCC(F)(F)CCCOc1nsnc1C1=CCCN(C)C1` [Example 9, 3-((4,4-Difluorohexyl)oxy)-4-(1-methyl-1,2,5,6-tetrahydropyridin-3-yl)-1,2,5-thiadiazole] had an EC50 of 28.4 nM and an Emax of 46%. At human M5 mAChR, this compound gave an EC50 of 140 nM and an Emax of 40%. For the same compound, on human M2 mAChR, the EC50 was above 34 nM and the “M2 Top (%)” value is recorded as 1%.

On human M1 mAChR, `CN1CCC=C(c2nsnc2OCCCCCC(F)F)C1` [Example 6, 3-((6,6-difluorohexyl)oxy)-4-(1-methyl-1,2,5,6-tetrahydropyridin-3-yl)-1,2,5-thiadiazole] had an EC50 of 2.5 nM and an Emax of 94%. Also, on human M5 mAChR, the midpoint of the response, the EC50, lay at 14.7 nM and the Emax was found to be 95%. For the same compound, at human M2 mAChR, the EC50 is above 34 nM and the “M2 Top (%)” value is reported as 2%.

For `CN1CCC=C(c2nsnc2OCCCCCC(F)(F)F)C1` [Example 1, 3-(1-Methyl-1,2,5,6-tetrahydropyridin-3-yl)-4-((6,6,6-trifluorohexyl)oxy)-1,2,5-thiadiazole], the values for the EC50 at human M1 mAChR, on human M5 mAChR and on human M2 mAChR were 3.7 nM, 22.4 nM and above 34 nM, respectively. In addition, the values for the Emax at human M1 mAChR and at human M5 mAChR were 90% and 85%, respectively. At human M2 mAChR, the “M2 Top (%)” value worked out at 1%.

At human M1 mAChR, `CN1CCC=C(c2nsnc2OCCCCCCF)C1` [Example 7, 3-((6-Fluorohexyl)oxy)-4-(1-methyl-1,2,5,6-tetrahydropyridin-3-yl)-1,2,5-thiadiazole] had an EC50 of 3.1 nM and an Emax of 93%. At human M5 mAChR, this compound had an EC50 of 13.2 nM and an Emax of 90%. Besides, on human M2 mAChR, the EC50 is above 34 nM and the “M2 Top (%)” value is 3%.

For `CN1CCC=C(c2nsnc2OCCCCC(C)(F)F)C1` [Example 8, 3-((5,5-Difluorohexyl)oxy)-4-(1-methyl-1,2,5,6-tetrahydropyridin-3-yl)-1,2,5-thiadiazole], the EC50 at human M1 mAChR is 5.7 nM; on human M5 mAChR, 27.2 nM; on human M2 mAChR, above 34 nM. Also, the Emax on human M1 mAChR came out at 87%; at human M5 mAChR, 85%. The “M2 Top (%)” value on human M2 mAChR is 0%.

The values above are taken from patent publication US11534434B2 (Karuna Therapeutics, Inc., priority 2019, dated 2022).
